Values belong to the compound of their own block, whether it stands above or below them.
Molecular target: T1, CXCR7 (Homo sapiens, UniProt P25106)
T1 construct: host or cells: CHO-K1 (PathHunter CXCR7 b-arrestin cell line, stably transfected)
Assay: PathHunter CHO-K1 CXCR7 b-arrestin assay (agonistic activity)
Format: cell-based
Settings: PathHunter CHO-K1 CXCR7 b-arrestin cell line, 90 minutes at 37° C.
Method: The […] receptor and CXCR7 agonistic activities of the compounds of formula (I) are determined in accordance with the following experimental method.
The assay is using the PathHunter™ CHO-K1 CXCR7 b-arrestin cell line from DiscoverX. The system is based on the Enzyme Fragment Complementation Technology. Two complementing fragments of the b-galactosidase enzyme are expressed within stably transfected cells. The larger portion of b-gal, termed EA for Enzyme Acceptor, is fused to the C-terminus of b-arrestin 2. The smaller fragment, termed ProLink™ tag, is fused to CXCR7 at the C-terminus. Upon activation, b-arrestin is recruited which forces the interaction of ProLink and EA, allowing complementation of the two fragments of b-gal and the formation of a functional enzyme which is capable of hydrolysing the substrate and generating a chemiluminescent signal.
CHO-K1 CXCR7 b-arrestin cells are detached from culture dishes with a cell dissociation buffer (Invitrogen, #13151-014) and collected in growing medium (F12HAMS 90% (v/v)/FCS 10% (v/v), Penicilin/streptomycin 1% (v/v)). 5000 cells per well (in 20 μl) are seeded in a 384 well plate (white-walled, clear bottom; BD Falcon #353274). The plate is incubated at 37° C./5% CO2 for 24 hours. Medium is then replaced by […] (Invitrogen #31985) for 3 to 4 hours. Test compounds are dissolved at 10 mM in DMSO and serially diluted in DMSO to 200× of the final concentration for dose response curves. Compounds are then diluted 1:33.3 in HBSS1X. 5 μl/well of HBSS1X/20 mM HEPES/0.2% BSA are added to the assay plate followed by addition of 5 μl/well of diluted compounds. CXCL12 (Peprotech #300-28A) may be used as a reference agonist. The plate is incubated for 90 minutes at 37° C. 12 μl of detection reagent (Path Hunter Detection Kit, DiscoveRx, #93-0001) is transferred to the assay plate and to the plate is incubated for 1 hour at room temperature. Luminescent signal is read in a microplate reader (FLUOstar Optima, bmg). The calculated EC50 values may fluctuate depending on the daily cellular assay performance. Fluctuations of this kind are known to those skilled in the art.

T1 sequence (P25106 whole entry): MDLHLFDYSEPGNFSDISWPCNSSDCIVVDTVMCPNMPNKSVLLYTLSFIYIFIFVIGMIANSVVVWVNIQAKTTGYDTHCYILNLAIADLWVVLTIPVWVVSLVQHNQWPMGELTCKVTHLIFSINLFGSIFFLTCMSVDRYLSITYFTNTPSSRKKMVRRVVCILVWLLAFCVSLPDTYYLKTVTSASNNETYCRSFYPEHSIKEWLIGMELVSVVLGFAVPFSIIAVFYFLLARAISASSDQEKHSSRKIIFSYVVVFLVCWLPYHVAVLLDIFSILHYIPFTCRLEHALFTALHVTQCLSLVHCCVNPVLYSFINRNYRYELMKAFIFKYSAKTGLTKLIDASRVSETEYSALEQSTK

Compound: CC(C)(NC(=O)C1CCN(Cc2cccc(NC(=O)c3ccc(Cl)cc3)c2)CC1)c1ccccc1 [Example 2.017]
- EC50: 0.219 µM

Compound: COc1cccc(CNC(=O)C2CCN(Cc3cccc(NC(=O)c4ccc(Cl)cc4)c3)CC2)c1 [Example 2.028]
- EC50: 0.394 µM

Compound: O=C(Nc1cccc(CN2CCC(C(=O)NCc3ccccc3Cl)CC2)c1)c1ccc(Cl)cc1 [Example 2.025]
- EC50: 0.017 µM

Compound: O=C(Nc1cccc(CN2CCC(C(=O)NC3CCC3)CC2)c1)c1ccc(Cl)cc1 [Example 2.007]
- EC50: 0.001 µM

- EC50: 0.015 µM
Compound: rac-2-Methyl-pyrimidine-4-carboxylic acid {3-[1-(4-cyclohexylcarbamoyl-piperidin-1-yl)-ethyl]-phenyl}-amide [Example 1.197]

Compound: CC(C)(C)NC(=O)C1CCN(Cc2cccc(NC(=O)c3ccc(F)c[n+]3[O-])c2)CC1 [Example 4.007, 5-Fluoro-1-oxy-pyridine-2-carboxylic acid [3-(4-tert-butylcarbamoyl-piperidin-1-ylmethyl)-phenyl]-amide]
- EC50: 0.003 µM

Compound: Cc1cncc(C(=O)Nc2cccc(CN3CCC(C(=O)NC4(C#N)CC4)CC3)c2)c1 [Example 2.045]
- EC50: 0.402 µM

Compound: Cc1cncc(C(=O)Nc2cccc(CN3CCC(C(=O)NCC4CC4)CC3)c2)c1 [Example 2.043]
- EC50: 0.02 µM

Compound: Cc1cncc(C(=O)Nc2cccc(CN3CCC(C(=O)NC4CCC(F)(F)CC4)CC3)c2)c1 [Example 2.044]
- EC50: 0.027 µM

Compound: O=C(Nc1cccc(CN2CCC(C(=O)NC3CCCCC3)CC2)n1)c1ccc(F)cc1 [Example 3.003, 1-[6-(4-Fluoro-benzoylamino)-pyridin-2-ylmethyl]-piperidine-4-carboxylic acid cyclohexylamide]
- EC50: 0.167 µM

Compound: N-[3-(4-tert-Butylcarbamoyl-piperidin-1-ylmethyl)-phenyl]-5-methoxy-nicotinamide [Example 4.014]
- EC50: 0.008 µM

Compound: CC(NC(=O)C1CCN(Cc2cccc(NC(=O)c3ccc(Cl)cc3)c2)CC1)c1cccc2ccccc12 (racemic) [Example 2.018]
- EC50: 0.349 µM

Compound: CCC(C)(C)NC(=O)C1CCCN(Cc2cccc(NC(=O)c3cccc(C(F)(F)F)n3)c2)CC1 (racemic) [Example 2.088]
- EC50: 0.019 µM

Compound: CC(C)(C)C1CCC(NC(=O)C2CCN(Cc3cccc(NC(=O)c4ccc(Cl)cc4)c3)CC2)CC1 (stereo not drawn) [Example 2.012]
- EC50: 1.05 µM

Compound: CCCNC(=O)C1CCN(Cc2cccc(NC(=O)c3cccc(C(F)(F)F)n3)c2)CC1 [Example 2.094]
- EC50: 0.001 µM

Compound: CC(C)(C)[C@@H](CO)NC(=O)C1CCN(Cc2cccc(NC(=O)c3cccc(C(F)(F)F)n3)c2)CC1 [Example 2.067]
- EC50: 0.406 µM

Compound: CC(C)(C)NC(=O)C1CCN(Cc2cccc(NC(=O)c3ccc(Cl)cc3)c2)CC1 [Example 2.004]
- EC50: 0.001 µM

Compound: CCNC(=O)C1CCN(Cc2cccc(NC(=O)c3cccc(C(F)(F)F)n3)c2)CC1 [Example 2.069]
- EC50: 0.004 µM

Compound: Cc1cncc(C(=O)Nc2cccc(CN3CCC(C(=O)NC4CC4)CC3)c2)c1 [Example 2.037]
- EC50: 0.082 µM

Compound: O=C(Nc1ccnc(CN2CCC(C(=O)NC3CCCCC3)CC2)c1)c1ccc(Cl)cc1 [Example 3.007, 1-[4-(4-Chloro-benzoylamino)-pyridin-2-ylmethyl]-piperidine-4-carboxylic acid cyclohexylamide]
- EC50: 0.028 µM

Compound: Cc1cncc(C(=O)Nc2cccc(CN3CCC(C(=O)N4CCC(C)(C)C4)CC3)c2)c1 [Example 2.061]
- EC50: 0.064 µM

Compound: Cc1cncc(C(=O)Nc2cccc(CN3CCC(C(=O)N4CCCCCC4)CC3)c2)c1 [Example 2.048]
- EC50: 0.019 µM

Compound: CCN(CC)C(=O)C1CCN(Cc2cccc(NC(=O)c3cccs3)c2)CC1 [Example 2.074]
- EC50: 0.07 µM

Compound: CC(C)C(CO)NC(=O)C1CCN(Cc2cccc(NC(=O)c3cccc(C(F)(F)F)n3)c2)CC1 (racemic) [Example 2.064]
- EC50: 0.087 µM

Compound: Cc1cncc(C(=O)Nc2cc(CN3CCC(C(=O)NC(C)(C)C)CC3)cs2)c1 [Example 3.012, N-[4-(4-tert-Butylcarbamoyl-piperidin-1-ylmethyl)-thiophen-2-yl]-5-methyl-nicotinamide]
- EC50: 0.044 µM

Compound: CCCCNC(=O)C1CCN(Cc2cccc(NC(=O)c3cccc(C(F)(F)F)n3)c2)CC1 [Example 2.095]
- EC50: 0.002 µM

Compound: CCC(C)(C)NC(=O)C1CCCN(Cc2cccc(NC(=O)c3cncc(C)c3)c2)CC1 (racemic) [Example 2.085]
- EC50: 0.068 µM

Compound: CC1CCC(NC(=O)C2CCN(Cc3cccc(NC(=O)c4cccc(C(F)(F)F)n4)c3)CC2)CC1 (stereo not drawn) [Example 2.083]
- EC50: 0.003 µM

Compound: CC(C)(C)NC(=O)C1CCN(Cc2csc(NC(=O)c3ccc(F)cc3)c2)CC1 [Example 3.008, 1-[5-(4-Fluoro-benzoylamino)-thiophen-3-ylmethyl]-piperidine-4-carboxylic acid tert-butylamide]
- EC50: 0.003 µM

Compound: CCC(CO)NC(=O)C1CCN(Cc2cccc(NC(=O)c3cccc(C(F)(F)F)n3)c2)CC1 (stereo not drawn) [Example 2.065]
- EC50: 0.026 µM

Compound: Cc1cncc(C(=O)Nc2cccc(CN3CCC(C(=O)N4CCCC4)CC3)c2)c1 [Example 2.047]
- EC50: 0.067 µM

Compound: Cc1cncc(C(=O)Nc2cccc(CN3CCC(F)(C(=O)NC4CCCCC4)CC3)c2)c1 [Example 4.001, N-[3-(4-Cyclohexylcarbamoyl-4-fluoro-piperidin-1-ylmethyl)-phenyl]-5-methyl-nicotinamide]
- EC50: 0.046 µM

Compound: O=C(Nc1cccc(CN2CCC(C(=O)NCC(F)(F)F)CC2)c1)c1ccc(Cl)cc1 [Example 2.031]
- EC50: 0.003 µM

Compound: Cc1cc(CNC(=O)C2CCN(Cc3cccc(NC(=O)c4ccc(Cl)cc4)c3)CC2)c(C(F)(F)F)o1 [Example 2.034]
- EC50: 0.533 µM

Compound: COc1cncc(C(=O)Nc2cccc(CN3CCC(C(=O)N(C)CC(C)C)CC3)c2)c1 [Example 4.015, N-{3-[4-(Isobutyl-methyl-carbamoyl)-piperidin-1-ylmethyl]-phenyl}-5-methoxy-nicotinamide]
- EC50: 0.019 µM

Compound: O=C(Nc1cccc(CN2CCC(C(=O)NC3CCCCC3)CC2)c1)c1ccc(Cl)cc1 [Example 1.001, 1-[3-(4-Chloro-benzoylamino)-benzyl]-piperidine-4-carboxylic acid cyclohexylamide]
- EC50: 0.002 µM

Compound: Cc1cncc(C(=O)Nc2cccc(CN3CCC(C(=O)NC4CCCC4)C3)c2)c1 (stereo not drawn) [Example 2.062]
- EC50: 0.028 µM

Compound: O=C(Nc1cccc(CN2CCC(C(=O)NC3CCCC3)CC2)c1)c1ccc(F)c[n+]1[O-] [Example 4.006, 5-Fluoro-1-oxy-pyridine-2-carboxylic acid [3-(4-cyclopentylcarbamoyl-piperidin-1-ylmethyl)-phenyl]-amide]
- EC50: 0.001 µM

Compound: Cc1cncc(C(=O)Nc2cccc(CN3CCC(C(=O)NC4CCCC4)CC3)c2)c1 [Example 2.042]
- EC50: 0.005 µM

Compound: O=C(Nc1cccc(CN2CCC(C(=O)NC3CCCCC3)CC2)c1)c1cccc(C(F)(F)F)n1 [Example 1.002, 6-Trifluoromethyl-pyridine-2-carboxylic acid [3-(4-cyclohexylcarbamoyl-piperidin-1-ylmethyl)-phenyl]-amide]
- EC50: 0.001 µM

Compound: CC(C)(CO)NC(=O)C1CCN(Cc2cccc(NC(=O)c3cccc(C(F)(F)F)n3)c2)CC1 [Example 2.091]
- EC50: 0.006 µM

Compound: Cc1cncc(C(=O)Nc2cccc(CN3CCC(C)(C(=O)NC4CCCCC4)CC3)c2)c1 [Example 4.003, N-[3-(4-Cyclohexylcarbamoyl-4-methyl-piperidin-1-ylmethyl)-phenyl]-5-methyl-nicotinamide]
- EC50: 0.197 µM

Compound: COc1ccccc1CNC(=O)C1CCN(Cc2cccc(NC(=O)c3ccc(Cl)cc3)c2)CC1 [Example 2.026]
- EC50: 0.015 µM

Compound: N-[3-(4-Cyclopropylcarbamoyl-piperidin-1-ylmethyl)-phenyl]-6-methyl-nicotinamide [Example 1.202]
- EC50: 0.145 µM

Compound: Cc1cncc(C(=O)Nc2cccc(CN3CCC(C(=O)N4CCCCC4)CC3)c2)c1 [Example 2.046]
- EC50: 0.006 µM

Compound: Cc1cncc(C(=O)Nc2cccc(CN3CCC(C(=O)NC4CCC4)CC3)c2)c1 [Example 2.041]
- EC50: 0.013 µM

Compound: O=C(Nc1cccc(CN2CCC(C(=O)NC3(CO)CCCC3)CC2)c1)c1ccc(Cl)cc1 [Example 2.032]
- EC50: 0.005 µM

Compound: O=C(Nc1cccc(CN2CCC(C(=O)NC3CCCCC3)CC2)c1)c1cccnc1 [Example 1.003, N-[3-(4-Cyclohexylcarbamoyl-piperidin-1-ylmethyl)-phenyl]-nicotinamide]
- EC50: 0.023 µM

Compound: 1-[3-(3-Fluoro-benzoylamino)-benzyl]-piperidine-4-carboxylic acid cyclohexylamide [Example 1.103]
- EC50: 0.006 µM

Compound: CN(C(=O)C1CCN(Cc2cccc(NC(=O)c3cccs3)c2)CC1)C1CCCCC1 [Example 2.077]
- EC50: 0.087 µM

Compound: O=C(Nc1cccc(CN2CCC(C(=O)NCc3ccncc3)CC2)c1)c1ccc(Cl)cc1 [Example 2.021]
- EC50: 0.218 µM
